Laboratory results taken from PMC2993181 (PLoS ONE, 2010).

Tested on: JEKO-1
Assay: cells
Design: species or system cell viability; MTT cell viability assay, absorbance 570/650 nm; IC50 by linear interpolation of concentration-response curve
Conditions: Homo sapiens, JeKo-1, 48 h; read-out: IC 50 values
Description: Supplementary file pone.0015479.s006.doc: Table S2 A list of compounds tested in this study. JEKO-1 cells were treated with each of the listed compounds at concentrations ranging from 1.25 µM to […]. Cell viability was determined by the MTT assay and used to obtain concentration-response curve. IC50 was extracted by linear interpolation. Click here for additional data file. HeLa and 293T cells from ATCC were maintained according to the standard procedures. JEKO-1 cells were kept in RPMI, 10% FCS as previously described. NOXA and control stable knock-down JEKO-1 cells were described previously. PBMC from normal volunteers were obtained from the Department of Transfusion Medicine, NIH and PBMC from CLL patients were obtained under NIH protocol 97-C-0178 with informed consent. Transfection was done with lipofectamine 2000 (Invitrogen) for 293T accordingly to manufacture's instruction. Pulse chase and denaturing immunoprecipitation were carried out as described previously, [48]. Subcellular fractionation experiments were carried out as previously described. Briefly, HeLa cells were harvested and washed with phosphate-buffered saline. Cells were then treated on ice with the buffer PB (25 mM Hepes, pH 7.2, 115 mM potassium acetate, 5 mM sodium acetate, 2.5 mM magnesium acetate, 0.5 mM EGTA, and a protease inhibitor cocktail) that also contain 0.028% digitonin. Cells were centrifuged at 20,000×g for 10 min. The cytosolic supernatant fraction was removed and the nucleus and membrane pellet fraction was washed twice with the PB buffer. The pellet fraction was finally resuspended in the PB buffer. The fluorescence intensity in these fractions was measured by the Victor 3 plate reader using the Ex482 and Em523 filter set. […] After 4 h incubation, the sample absorbance at 570 nm and […] were measured using a Victor 3 plate reader (Perkin Elmer, Waltham, MA) and ratio of drug-treated samples vs. the untreated control was used to determine cell viability. […] Fluorescence labeled secondary antibodies (Invitrogen, Carlsbad, CA) were used for detection. […]

With O=C(CCCC[C@@H]1SC[C@@H]2NC(=O)N[C@@H]21)N/N=C/C=C/c1ccc([N+](=O)[O-])o1 [CBU-032] as the compound, how does the IC50 read?
Its IC50 is 25 µM.

CC1(C)C(N(O)C(=O)Nc2ccc(Cl)cc2)N(c2ccc(Cl)cc2)C(=O)N1CC(=O)N/N=C/C=C/c1ccc([N+](=O)[O-])o1 (stereo not drawn) [EerI, Eeyarestatin I] was tested. Which IC50 did it give?
The IC50 was 3.5 µM.

For CN(C)c1ccc(/C=C/C=N/NC(=O)CN2C(=O)N(c3ccc(Cl)cc3)C(N(O)C(=O)Nc3ccc(Cl)cc3)C2(C)C)cc1 (stereo not drawn) [CBU-059], which IC50 is on record?
Its IC50 is > 40 µM.
